# Results reported in publication PMC7902086 (Toxicology letters, 2019).
# Where “and” joins values, the source holds several entries; their conditions need not be identical. Equal values may be shown once.
# How the values were obtained:
# [1] = target: CYP2D6 (Homo sapiens, UniProt P10635); conditions: known CYP2D6 substrates; ref Obach et al., 2006; cited from earlier work
# [2] = test system: CYP3A4; conditions: in humans; ref Kamble et al., 2019; cited from earlier work
# [3] = test system: μ-opioid receptors; conditions: ref Boyer et al., 2008; Kruegel et al., 2016; cited from earlier work
# [4] = deceased kratom users in the United States, autopsies; ref Gershman et al., 2019; cited from earlier work
# [5] = target: CYP2C19 (Homo sapiens, UniProt P33261); experiment: CYP450 inhibition assay, S-mephenytoin 4′-hydroxylase in human liver microsomes; assay type: in vitro ADME; conditions: read-out: IC50, CYP2C19 S-Mephenytoin 4′-hydroxylase; human liver microsomes 0.1 mg/mL; mean of triplicate
# Chain of CYP2C19 (P33261 whole entry): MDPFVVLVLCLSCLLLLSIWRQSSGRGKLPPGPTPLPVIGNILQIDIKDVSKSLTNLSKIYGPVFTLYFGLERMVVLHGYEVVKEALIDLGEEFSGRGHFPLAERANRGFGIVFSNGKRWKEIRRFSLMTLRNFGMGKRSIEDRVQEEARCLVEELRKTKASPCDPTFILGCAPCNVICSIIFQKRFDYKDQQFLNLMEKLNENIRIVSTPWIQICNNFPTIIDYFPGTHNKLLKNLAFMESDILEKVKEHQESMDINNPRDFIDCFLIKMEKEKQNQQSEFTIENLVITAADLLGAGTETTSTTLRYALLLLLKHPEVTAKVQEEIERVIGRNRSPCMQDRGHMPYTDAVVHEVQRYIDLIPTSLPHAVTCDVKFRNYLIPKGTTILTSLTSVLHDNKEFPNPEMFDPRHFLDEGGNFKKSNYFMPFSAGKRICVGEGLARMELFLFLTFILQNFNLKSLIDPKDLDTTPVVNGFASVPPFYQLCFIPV
# [6] = test system: CYP3A4/5; experiment: CYP450 inhibition assay, midazolam 1′-hydroxylase in human liver microsomes; assay type: in vitro ADME; conditions: read-out: IC50, CYP3A4/5 Midazolam 1′-hydroxylase; human liver microsomes 0.1 mg/mL; mean of triplicate
# [7] = test system: CYP3A4/5; experiment: CYP450 inhibition assay, testosterone 6β-hydroxylase in human liver microsomes; assay type: in vitro ADME; conditions: read-out: IC50, CYP3A4/5 Testosterone 6β-hydroxylase; human liver microsomes 0.1 mg/mL; mean of triplicate
# Chain of CYP2D6 (P10635 whole entry): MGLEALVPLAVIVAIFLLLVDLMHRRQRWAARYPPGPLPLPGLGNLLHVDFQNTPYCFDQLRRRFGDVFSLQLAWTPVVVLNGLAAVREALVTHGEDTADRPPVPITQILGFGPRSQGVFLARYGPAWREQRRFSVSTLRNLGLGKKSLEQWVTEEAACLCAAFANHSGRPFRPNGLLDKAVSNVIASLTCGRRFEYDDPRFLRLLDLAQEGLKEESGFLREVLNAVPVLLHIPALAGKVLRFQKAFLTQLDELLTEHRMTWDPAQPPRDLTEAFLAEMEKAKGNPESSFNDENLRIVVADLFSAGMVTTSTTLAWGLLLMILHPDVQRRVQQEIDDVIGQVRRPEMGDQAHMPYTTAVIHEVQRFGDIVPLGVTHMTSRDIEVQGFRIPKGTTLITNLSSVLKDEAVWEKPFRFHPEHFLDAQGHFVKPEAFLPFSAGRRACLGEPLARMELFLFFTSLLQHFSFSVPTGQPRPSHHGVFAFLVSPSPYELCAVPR
Molecule,"fm, CYP2D6 [1]",IC50 [5] [µM],IC50 [6] [µM],IC50 [7] [µM],also measured
COc1ccc2c(c1)[C@]13CCCC[C@@H]1[C@H](C2)N(C)CC3 [dextromethorphan],1,,,,
mitragynine [MTG],,,,,enzyme predominantly responsible for metabolism [2]: predominantly metabolized by CYP3A4; activity at μ-opioid receptors [3]: partial agonists; serum concentration levels [4]: 16 to 4800 ng/mL and 0.041–12.05 μM
"CC[C@H]1CN2CCc3c([nH]c4cccc(OC)c34)[C@@H]2C[C@@H]1/C(=C\OC)C(=O)OC [SPG, speciogynine]",,19.5,13.5,> 45,
CNCCCN1c2ccccc2CCc2ccccc21 [desipramine],0.9,,,,
"CC[C@@H]1CN2CC[C@@]3(O)C(=Nc4cccc(OC)c43)[C@@H]2C[C@@H]1/C(=C\OC)C(=O)OC [7HMG, 7-hydroxymitragynine]",,27.7,> 45,> 45,activity at μ-opioid receptors [3]: partial agonists
"CC[C@@H]1CN2CCc3c([nH]c4cccc(OC)c34)[C@H]2C[C@@H]1/C(=C\OC)C(=O)OC [SPC, speciocilliatine]",,8,26.4,> 45,
"C=C[C@H]1CN2CCc3c([nH]c4cccc(OC)c34)[C@@H]2C[C@@H]1/C(=C\OC)C(=O)OC [PAY, paynantheine]",,38.4,7.9,> 45,
COCCc1ccc(OCC(O)CNC(C)C)cc1 (stereo not shown) [metoprolol],0.8,,,,
